In patent US4921855A, “New Histidyl amino acid derivatives, and pharmaceutical composition comprising the same” (Fujisawa Pharmaceutical Co., Ltd., priority 1987, dated 1990):

Experiments:
renin = molecular target: T1, renin (Homo sapiens, UniProt P00797); assay: Inhibition of human plasma renin activity (angiotensin I formation, RIA); type: biochemical; details: endogenous renin and angiotensinogen, pH 6.0, 37° C, 90 minutes, RIA of Ang I
T1 construct: endogenous renin and angiotensinogen in plasma; from tissue; host or cells: pooled human plasma (EDTA) from male volunteers
T1 sequence (P00797 67-406): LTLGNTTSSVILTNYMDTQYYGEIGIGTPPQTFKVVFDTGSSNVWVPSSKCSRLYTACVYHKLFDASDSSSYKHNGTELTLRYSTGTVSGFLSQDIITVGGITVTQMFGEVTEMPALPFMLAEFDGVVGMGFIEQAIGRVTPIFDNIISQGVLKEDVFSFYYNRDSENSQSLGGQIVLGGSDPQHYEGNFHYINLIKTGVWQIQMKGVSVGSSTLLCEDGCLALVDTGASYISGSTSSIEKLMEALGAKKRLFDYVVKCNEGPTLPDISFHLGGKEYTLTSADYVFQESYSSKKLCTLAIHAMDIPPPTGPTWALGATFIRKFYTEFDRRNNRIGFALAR
Method: Human plasma was collected from male volunteers pretreated with no drugs and used as a pool. Disodium salt of ethylenediaminetetraacetic acid (EDTA) was used as the anticoagulant. Plasma renin activity was measured as the rate of angiotensin I (Ang I) formation after incubation (37° C) of the endogenous renin and angiotensinogen in plasma at pH 6.0. The incubation mixture contained 250 μl of plasma, 5 μl of (phenylmethyl)sulfonyl fluoride, 30 μl of buffer (sodium, potassium-phosphate, pH 6.0), and 15 μl of an appropriate concentration of test compound in 50% ethyl alcohol-water vehicle. The Ang I formed after 90 minutes of incubation was measured by radioimmunoassay (RIA) which was carried out with a commercial kit, RENCTK 100 (manufactured by Commissariat A L'energic Atomique). Samples were incubated in duplicate and each tube was measured in duplicate in the RIA. Percentage inhibition of plasma renin activity was calculated by comparing the amount of Ang I produced with and without a test compound. The concentration of test compound that inhibited plasma renin activity by 50% (IC50) was determined by Probit method.

[1] = tested on: mean arterial blood pressure (MAP); assay: Hypotensive effect after oral administration to conscious sodium-depleted cynomolgus monkeys (maximum percentage fall of MAP); type: in vivo, cynomolgus monkeys (Macaca fascicularis); details: 0-6 hours
Method: (§1) Male or female cynomolgus monkeys (Macaca fascicularis) weighing about 2.5-3.5 kg were used. Sodium depletion was achieved by administering furosemide, 15 mg/kg subcutaneously one day before and then 10 mg/kg intravenously 30 minutes before the administration of the test compound.
(§2) Test compounds were dissolved in diluted equimolar hydrochloric acid (pH 5-6) and orally administered to conscious and trained monkeys placed in restraining chairs with pneumatic cuff positioned around the arm for oscillometric measurement of mean arterial blood pressure (MAP) (Model BP-203 NPJ, manufactured by Nippon Colin).
The Map was measured at 0 (predosing base line), 0.5, 1, 2, 3, 4 and 6 hours after administration of the test compound. The maximum hypotensive effect was calculated as the maximum percentage fall of MAP from the pretreatment value.

plasma renin = assay: Inhibition of plasma renin activity (PRA) after oral administration to sodium-depleted cynomolgus monkeys; type: in vivo, cynomolgus monkeys (Macaca fascicularis); details: sodium-depleted conscious monkeys, 0-6 hours
Method: as §1, §2
Blood samples were collected at 0, 0.5, 1, 2, 4 and 6 hours after dosing from the antecubital vein of the monkey into disodium salt of EDTA coated tubes, centrifuged for 10 min. (3000 rpm, 4° C.) and plasma was obtained for determination of plasma renin activity (PRA). PRA was measured as the rate of Ang I formation with the same principle as illustrated in Test 1. 100 μl of sample plasma was mixed with 100 μl of the solution of angiotensinase inhibitors (3 mM 8-hydroxyquinoline sulfate and 5 mM 2,3-dimercaptopropanol, SB-REN-1, SORIN BIOMEDICA, Italy). Half (100 μl) of the mixture was incubated at 37° C. for one hour and Ang I formed was determined by a commercial RIA kit (DINABOTT). The remaining half (100 μl) of the reaction mixture was kept at 4° C. for one hour to measure and correct for the preexisting Ang I in the plasma. Percentage inhibition of PRA was calculated by the following formula: [formula]
A37 : the amount of angiotensin I formed by incubation at 37° C. of plasma collected before dosing the test compound
A4 : the amount of angiotensin I formed by keeping at 4° C. of plasma collected before dosing the test compound
D37 : the amount of angiotensin I formed by incubation at 37° C. of plasma collected after dosing the test compound
D4 : the amount of angiotensin I formed by keeping at 4° C. of plasma collected after dosing the test compound.

Structure (SMILES)	IC50 (renin)	Maximum hypotensive effect (%) ([1]; 32 mg/kg (po))	Maximum inhibition of PRA (%) (plasma renin; 32 mg/kg (po))	Maximum hypotensive effect (%) ([1]; 3.2 mg/kg (po))	Maximum inhibition of PRA (%) (plasma renin; 3.2 mg/kg (po))
CC(C)CC[C@H](O)[C@H](CC1CCCCC1)NC(=O)[C@H](Cc1c[nH]cn1)N(C)C(=O)[C@H](Cc1ccccc1)OC(=O)N(C)CCC(=O)N1CCOCC1 [(5)]	25 nM	18%	92%	–	–
CC(C)CC[C@H](O)[C@H](CC1CCCCC1)NC(=O)[C@H](Cc1c[nH]cn1)N(C)C(=O)[C@H](Cc1ccccc1)OC(=O)N(C)CCN(C)C(=O)N1CCOCC1 [(23)]	4 nM	–	–	19%	99%
CC(C)CC[C@H](O)[C@H](CC1CCCCC1)NC(=O)[C@H](Cc1c[nH]cn1)N(C)C(=O)[C@H](Cc1ccccc1)OC(=O)N(C)CCN(C)C(=O)C(C)C [(24)]	8.7 nM	–	–	15%	93%
